ChEMBL document CHEMBL3352810, “Synthesis and evaluation of novel alkannin and shikonin oxime derivatives as potent antitumor agents” (Bioorg Med Chem Lett, 2014)

Assays:
[1] = Cytotoxicity against human skin fibroblast cells by MTT assay; format: cell-based
DU-145 = test: Cytotoxicity against human DU145 cells by MTT assay; format: functional, cell-based
MCF7 [2] = test: Cytotoxicity against human MCF7 cells by MTT assay; format: functional, cell-based
K562 = test: Cytotoxicity against human K562 cells by MTT assay; format: functional, cell-based
[3] = Alkylation of the compound assessed as Michael addition after 15 mins; format: physicochemical
[4] = Alkylation of the compound assessed as bioreductive alkylation after 15 mins; format: physicochemical
MCF7 [5] = test: Induction of ROS level in human MCF7 cells by flow cytometry relative to control; format: functional

Compound | IC50 [1] [µM] | IC50 (DU-145) [µM] | IC50 (MCF7 [2]) [µM] | IC50 (K562) [µM] | Activity [3] | Activity [4] | Activity (MCF7 [5]) [%]
CC(C)=CC[C@H](O)C1=CC(=O)c2c(O)ccc(O)c2C1=O [ALKANNIN] | 1.5 | 19.9 | 2.4 | 1.3 | – | – | –
CC(C)=CC[C@@H](OC(=O)C=C(C)C)C1=CC(=O)c2c(O)ccc(O)c2C1=O [DIMETHYLACRYLSHIKONIN] | – | – | – | – | Not Active | Not Active | 414.8
CC(C)=CC[C@@H](O)C1=CC(=O)c2c(O)ccc(O)c2C1=O [SHIKONIN] | 1.2 | 16 | 1.8 | 0.7 | – | – | –
